Results published in PubChem BioAssay AID434987 (Southern Research Specialized Biocontainment Screening …, 2010).
pIC50: −log10 of the molar value. Activity calls are given as the source filed them. The rule behind the calls is not given here.

Tested on: M. tuberculosis H37Rv growth inhibition with meropenem
Assay: dose response, H37Rv, with and without meropenem (AID 434987);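 note: growth over 7 days at 37 °C before Alamar Blue read on day 9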
[1] = M. tuberculosis H37Rv growth inhibition, measured here: IC50 without meropenem
[2] = M. tuberculosis H37Rv growth inhibition, measured here: IC90 without meropenem
[3] = measured here: IC90 with meropenem

With `CCSc1nnc(NC(=O)CSc2nccn2-c2cccc(C)c2)s1` the IC50 was > 100 µM (inactive), the pIC50 [1] was < 4.00 and the IC90 [2] was > 100 µM. For the same molecule, the IC90 [3] was > 100 µM.
In the case of `CSc1ccccc1NC(=O)c1c(Br)cnn1C`, the pIC50 was 4.55, the pIC50 [1] was 4.08 and the IC90 [2] was > 100 µM. The IC90 [3] was > 100 µM.
For `CCOC(=O)c1ccc(C(=O)NNC(=O)C2CC=CCC2)cc1` (configuration not stated), the IC50 was 8.57 µM (inactive), the pIC50 [1] was 4.68 and the IC90 [2] was 31.9 µM. It also gave an IC90 [3] of 40 µM.
For `O=C(Nc1nc(-c2ccc3c(c2)OCCO3)cs1)c1ccc(S(=O)(=O)N2CCCCC2)cc1`, the IC50 was > 100 µM (inactive), the pIC50 [1] was < 4.00 and the IC90 [2] was > 100 µM. The IC90 [3] was > 100 µM.
`Cc1ccc(C(=O)Nc2nc3ccccc3s2)s1` was tested, and the IC50 was 43.6 µM (inactive), the pIC50 [1] was < 4.00 and the IC90 [2] was > 100 µM. For the same molecule, the IC90 [3] was > 100 µM.
In the case of `CCOc1cccc(=O)c2c(C)n(Cc3ccccc3)c(C)c12`, the IC50 was > 100 µM (inactive), the pIC50 [1] was < 4.00 and the IC90 [2] was > 100 µM. For the same molecule, the IC90 [3] was > 100 µM.
For `Cn1nnnc1SCC(=O)Nc1ccccc1[N+](=O)[O-]`, the pIC50 was 4.54, the pIC50 [1] was 4.14 and the IC90 [2] was > 100 µM. For the same molecule, the IC90 [3] was > 100 µM.
`COc1ccccc1CNC(=O)c1ccc(SC)cc1OC` was tested, and the IC50 was 49.8 µM (inactive), the pIC50 [1] was 4.08 and the IC90 [2] was > 100 µM. For the same molecule, the IC90 [3] was > 100 µM.
`CC(=O)Nc1ccc(Nc2ncc([N+](=O)[O-])c(Nc3ccc(NC(C)=O)cc3)n2)cc1` was tested, and the pIC50 was 6.37, the pIC50 [1] was 5.61 and the IC90 [2] was > 100 µM. It also gave an IC90 [3] of 45.5 µM.
With `CCn1nnnc1SCC(=O)c1ccc(C)cc1C` the IC50 was > 100 µM (inactive), the pIC50 [1] was < 4.00 and the IC90 [2] was > 100 µM. For the same molecule, the IC90 [3] was > 100 µM.
For `CSc1ccccc1C(=O)Nc1cccc([N+](=O)[O-])c1C`, the IC50 was > 100 µM (inactive), the pIC50 [1] was < 4.00 and the IC90 [2] was > 100 µM. For the same molecule, the IC90 [3] was > 100 µM.
With `CCNC(=S)N/N=C1\C(=O)c2cccc3cccc1c23` the pIC50 was 5.26, the pIC50 [1] was < 4.00 and the IC90 [2] was > 100 µM. For the same molecule, the IC90 [3] was 7.61 µM.
`COc1ccc(N2C(=O)NC(=O)/C(=C\c3ccc([N+](=O)[O-])s3)C2=O)cc1` was tested, and the IC50 was 16.3 µM (inactive), the pIC50 [1] was 4.64 and the IC90 [2] was 25.7 µM. The IC90 [3] was 21.3 µM.
With `CN1C(=O)/C(=C/c2ccc(C(=O)NC3CCCC3)cc2)Oc2ccccc21` the IC50 was > 100 µM (inactive), the pIC50 [1] was < 4.00 and the IC90 [2] was > 100 µM. The IC90 [3] was > 100 µM.
`Cc1ccc(-n2c(SCC(=O)OC(C)C)nnc2-c2ccco2)cc1` was tested, and the IC50 was 37.6 µM (inactive), the pIC50 [1] was 4.21 and the IC90 [2] was > 100 µM. The IC90 [3] was > 100 µM.
`CCSc1nnc(NC(=O)Cn2cnc3ccccc3c2=O)s1` was tested, and the IC50 was > 100 µM (inactive), the pIC50 [1] was < 4.00 and the IC90 [2] was > 100 µM. The IC90 [3] was > 100 µM.
`O=c1[nH]c(C2CCN(S(=O)(=O)c3ccc(S(=O)(=O)NC4CC4)cc3)CC2)nc2c1nnn2Cc1ccc(F)cc1` was tested, and the IC50 was > 100 µM (inactive), the pIC50 [1] was < 4.00 and the IC90 [2] was > 100 µM. The IC90 [3] was > 100 µM.
In the case of `O=C(Nc1cccc(C(F)(F)F)c1)N1CCC(c2nc(-c3ccc(F)cc3)no2)CC1`, the IC50 was > 100 µM (inactive), the pIC50 [1] was < 4.00 and the IC90 [2] was > 100 µM. For the same molecule, the IC90 [3] was > 100 µM.
`CC(C)C(=O)Nc1ccc2c3c(cccc13)CC2` was tested, and the pIC50 was 4.71, the pIC50 [1] was < 4.00 and the IC90 [2] was > 100 µM. For the same molecule, the IC90 [3] was > 100 µM.
For `O=C(CSc1n[nH]c(=O)n1C1CC1)c1ccc2c(c1)OCCO2`, the pIC50 was 5.31, the pIC50 [1] was 4.33 and the IC90 [2] was > 100 µM. The IC90 [3] was > 100 µM.
`NC(=S)N/N=C/c1ccc(/C=N/NC(N)=S)cc1` was tested, and the pIC50 was 5.60, the pIC50 [1] was < 4.00 and the IC90 [2] was > 100 µM. The IC90 [3] was > 100 µM.
`O=C(N/N=C\c1cn[nH]c1-c1ccc(Cl)cc1)c1cccs1` was tested, and the IC50 was > 100 µM (inactive), the pIC50 [1] was < 4.00 and the IC90 [2] was > 100 µM. The IC90 [3] was > 100 µM.
`O=C(O)CSc1ncnc2c1sc1nc(-c3ccccc3)c3c(c12)CCC3` showed a pIC50 of 4.91, a pIC50 [1] of 4.21 and an IC90 [2] of 87.4 µM. For the same molecule, the IC90 [3] was 14.2 µM.
